This passage reports IC50 results from patent US6794396B2, “Substituted pyridines useful for inhibiting cholesteryl ester transfer protein activity” (Pharmacia Corporation, priority 1998, dated 2004).

Molecules are shown by their SMILES.

In general, IC50 refers to the concentration that inhibits the measured activity by half.

The first assay concerns the target T1, CETP (Homo sapiens, UniProt P11597).
T1 construct: made in house; host or cells: CHO cells (serum-free conditioned medium)
T1 sequence (P11597 18-493): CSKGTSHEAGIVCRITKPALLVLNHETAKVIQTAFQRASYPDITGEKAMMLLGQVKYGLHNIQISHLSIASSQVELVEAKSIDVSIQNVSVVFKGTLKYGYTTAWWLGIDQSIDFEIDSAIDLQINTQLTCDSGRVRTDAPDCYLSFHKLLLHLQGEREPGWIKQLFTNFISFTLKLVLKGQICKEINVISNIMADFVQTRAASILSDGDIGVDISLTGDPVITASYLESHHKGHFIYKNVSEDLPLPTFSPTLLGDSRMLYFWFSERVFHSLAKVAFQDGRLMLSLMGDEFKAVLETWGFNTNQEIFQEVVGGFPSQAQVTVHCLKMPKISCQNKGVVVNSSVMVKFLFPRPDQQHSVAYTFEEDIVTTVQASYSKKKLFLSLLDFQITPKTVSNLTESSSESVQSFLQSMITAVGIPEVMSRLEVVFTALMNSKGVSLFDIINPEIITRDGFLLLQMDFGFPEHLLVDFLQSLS
The assay is described as follows: CETP activity in vitro: transfer of [3H]CE from HDL donor to LDL acceptor particles. It counts as biochemical. The settings on record: 50% inhibition of [3H]CE transfer from HDL to LDL, 2 hours at 37° C.; read-out: IC50(μm). Here is the method: The ability of compounds to inhibit CETP were assessed using an in vitro assay that measured the rate of transfer of radiolabeled cholesteryl ester ([^3H]CE) from HDL donor particles to LDL acceptor particles. Details of the assay are provided by Glenn et al. (“Quantification of Cholesteryl Ester Transfer Protein (CETP): A) CETP Activity and B) Immunochemical Assay of CETP Protein,” Meth. Enzymol., Glenn and Melton (Meth. Enzymol., 263, 339-351 (1996), which is incorporated herein by reference). CETP was obtained from the serum-free conditioned medium of CHO cells transfected with a cDNA for CETP (Wang, S. et al. J. Biol Chem. 267, 17487-17490 (1992), which is incorporated herein by reference).
To measure CETP activity, [^3H]CE-labeled HDL, LDL, CETP and assay buffer (50 mM tris(hydroxymethyl)amino-methane, pH 7.4; 150 mM sodium chloride; 2 mM ethylenediamine-tetraacetic acid; 1% bovine serum albumin) were incubated in a volume of 200 μl, for 2 hours at 37° C. in 96 well plates. LDL was differentially precipitated by the addition of 50 μl of 1% (w/v) dextran sulfate/0.5 M magnesium chloride, mixed by vortex, and incubated at room temperature for 10 minutes The solution (200μl) was transferred to a filter plate (Millipore). After filtration, the radioactivity present in the precipitated LDL was measured by liquid scintillation counting.
This value was defined as the IC50.
For `COC(=O)c1c(C(F)F)nc(C(F)(F)F)c(CSc2ccc(C(C)(C)C)cc2)c1CC(C)C` [Compound 3, Methyl 5-(4-t-Butylphenylthiomethyl)-2-(difluoromethyl)-4-(2-methylpropyl)-6-(trifluoromethyl)-3-pyridinecarboxylate], the IC50 was 9 µM.

For `CCOC(=O)c1c(C(F)(F)F)nc(C(F)(F)F)c(C)c1Sc1ccc(C(C)C)cc1` [Compound 11, Ethyl 2,6-Bis(trifluoromethyl)-4-[4-(isopropylphenyl)thio]-5-methyl-3-pyridinecarboxylate], the half-maximal inhibitory concentration (IC50) stood at 25 µM.

As to `COC(=O)c1c(C(F)F)nc(C(F)(F)F)c(C(O)c2ccco2)c1CC(C)C` (stereo not shown) [Compound 13, Methyl 2-(difluoromethyl)-5-(1-hydroxyl-furylmethyl)-4-(2-methylpropyl)-6-(trifluoromethyl)-3-pyridinecarboxylate], the half-inhibitory concentration (IC50) came to 30 µM.

Take `COC(=O)c1c(C(F)F)nc(C(F)(F)F)c(N=C=S)c1CC(C)C` [Compound 18]: the IC50 was 35 µM.

With `CCOC(=O)c1c(C(F)F)nc(C(F)(F)F)c(C(=O)OCC)c1SC1CCCC1` [Compound 22, Diethyl 2-(Difluoromethyl)-4-(cyclopentylthio)-6-(trifluoromethyl)-3,5-pyridinedicarboxylate], the IC50 is 40 µM.

On to `CCOC(=O)c1c(Sc2ccccc2)cc(C(F)(F)F)nc1C(F)(F)F` [Compound 23], for which the IC50 was found to be 40 µM.

The assay is the same for the next values; noted with them: IC50(μm), 50% inhibition of [3H]CE transfer from HDL to LDL, 2 hours at 37° C.
`COC(=O)c1c(C(F)F)nc(C(F)(F)F)c(N=S=O)c1CC(C)C` [Compound 1] returned a half-inhibitory concentration (IC50) of 2 µM.

The compound `CCOC(=O)c1c(C(F)(F)F)nc(C(F)F)c(C(=O)OC)c1S` [Compound 2, 3-Methyl 5-Ethyl 2-(Difluoromethyl)-4-mercapto-6-(trifluoromethyl)-3,5-pyridinedicarboxylate] displayed an IC50 of 3 µM.

As for `CCCCCCCCCCCCCCCC(=O)Sc1c(C(F)(F)F)nc(C(F)F)c(C(=O)OC)c1CC(C)C` [Compound 5, Methyl 2-(Difluoromethyl)-4-(2-methylpropyl)-5-(palmitoylthio)-6-(trifluoromethyl)-3-pyridinecarboxylate], the IC50 is 8 µM.

With `COC(=O)Sc1c(C(F)(F)F)nc(C(F)F)c(C(=O)OC)c1CC(C)C` [Compound 6, Methyl 2-(Difluoromethyl)-4-(2-methylpropyl)-5-[(methoxycarbonyl)thio]-6-(trifluoromethyl)-3-pyridinecarboxylate], the IC50 stood at 8 µM.

In the case of `CC(C)Cc1c(C(=O)OC(C)(C)C)c(C(F)F)nc(C(F)(F)F)c1C(=O)OC(C)(C)C` [Compound 9, Di-t-Butyl 2-(difluoromethyl)-4-(2-methylpropyl)-6-(trifluoromethyl)-3,5-pyridinedicarboxylate], inhibition was half-maximal at 20 µM (IC50).

Compound `COC(=O)c1c(C(F)(F)F)nc(C(F)(F)F)c(C2=NCCS2)c1CC(C)C` [Compound 12, Methyl 2,6-Bis(trifluoromethyl)-5-(4,5-dihydro-2-thiazoly)-4-(2-methylpropyl)-3-pyridinecarboxylate] had an IC50 of 25 µM.

`COC(=O)c1c(C(F)F)nc(C(F)(F)F)c(C(=O)SC(C)C)c1C1CCC1` [Compound 14, Methyl 2-(Difluoromethyl)-5-[(i-propylthio)carbonyl]-4-(cyclobutyl)-6-(trifluoromethyl)-3-pyridinecarboxylate] returned an IC50 of 30 µM.

As for `COC(=O)c1c(C(F)F)nc(C(F)(F)F)c(N=C(CBr)OC)c1CC(C)C` [Compound 16], inhibition was half-maximal at 30 µM (IC50).

In turn, `COC(=O)c1c(C(F)F)nc(C(F)(F)F)c(C#C[Si](C)(C)C)c1CC(C)C` [Compound 19, Methyl 2-(Difluoromethyl)-4-(2-methylpropyl)-6-(trifluoromethyl)-5-[(trimethylsilyl)ethynyl]-3-pyridinedicarboxylate] came in with a 50% inhibitory concentration (IC50) of 35 µM.

`CCSC(C)c1c(C(F)(F)F)nc(C(F)F)c(C(=O)OC)c1CC1CC1` (stereo not shown) [Compound 21] came in with a concentration for half-maximal inhibition (IC50) of 40 µM.
